Test results: paper PMC6315844, “Two Novel Multi-Functional Peptides from Meat and Visceral Mass of Marine Snail Neptunea arthritica cumingii and Their Activities In Vitro and In Vivo” (Marine Drugs, 2018)
Values belong to the molecule of their own block, whether it stands above or below them. No end group written: not given here.

Assays:
[1] = system: ACE; conditions: data recorded in biopep database; read-out: EC50 (ACE inhibition); cited from earlier work
Source text: ACE catalyzes the conversion of angiotensin I to angiotensin II, a potent vasoconstrictor, and promotes degradation of the vasodilator bradykinin [31]; thus, inhibition of ACE activity may help with reducing blood pressure. Because high-molecular-weight peptides cannot occupy the active site of ACE [32], ACE-inhibitory peptides are typically 2–30 amino acids in length.

[2] = synthetic peptides; simulated gastrointestinal digestion; samples 90 to 1800 μg/mL; p > 0.05
Procedure: A series of samples with concentration range from 90 μg/mL (corresponding to 69.28 μM and 93.26 μM for […] and […], respectively) to 1800μg/mL were used in stability analysis.
Thermal stability and gastrointestinal digestion stability of two synthetic peptides were determined according to Chen et al.. The incubated temperature for peptide solutions was set as 20, 40, 60, and 80 °C, respectively. DPPH radical scavenging activities and ACE inhibitory activities of the peptide solutions were measured as the above description.

[3] = system: Tg (krt4:NTR-hKikGR)cy17 zebrafish; assay: In vivo antioxidant activity in MTZ-treated transgenic zebrafish embryos (skin fluorescent spots); set-up: species or system zebrafish (Danio rerio); conditions: 10 mM MTZ, 24 h, 28 °C, n = 10
Source text: For Tg (krt4:NTR-hKikGR)^cy17 zebrafish, MTZ treatment can lead to ROS overproduction, apoptosis of skin cells, and reduction of fluorescence spots on skin; thus, this model is used to assess ROS scavenging capacity of sample by measuring the growth rate of fluorescent spots (FS) on the skin of Tg (krt4:NTR-hKikGR)^cy17 transgenic zebrafish. Sample with antioxidant activity can remove ROS from transgenic zebrafish and prevent the skin cell apoptosis.
The number of fluorescence spots on the skin will increase after incubation with antioxidant. Thus, we can evaluate the ROS scavenging ability of samples on the basis of changes in the number of fluorescence spots compared with the MTZ-treatment. The in vivo antioxidant activity of the active peptides was evaluated according to previously described methods with some modification using the transgenic zebrafish line Tg (krt4:NTR-hKikGR)^cy17. Twenty-four-hour-old transgenic zebrafish embryos were added to 24-well cell culture plates (10 embryos/well) and incubated with 2 mL of 10 mM MTZ (dissolved in fish water) and active peptides for 24 h at 28 °C. […] After incubation, zebrafish embryos were anesthetized with tricaine (0.16%, w/v), and fluorescence was observed using an FSX100 Bio Imaging Navigator instrument. FS were counted using ImagePro-Plus, and the in vivo antioxidant activity (%) of active peptides was determined by Equation 1. […]

[4] = DPPH radical scavenging activity; conditions: for DPPH Radical Scavenging Activity (%): fractions purified from M-F and VM-F using HILIC, all at the same concentration (not given), n = 3, mean ± SD; for EC50: natural purified peptide, Figure 3a, tests repeated three times, read-out: EC50 values of active peptides: DPPH
Procedure: The DPPH radical scavenging activity of the two peptide fractions was determined according to the methods described by Lee et al.. Vitamin C was used as a positive control. The EC50 values for DPPH radical scavenging was determined.

[5] = Thermal stability of synthetic peptides (DPPH and ACE activity retained); assay type: physicochemical; conditions: incubated at 20, 40, 60 and 80 °C, samples 90 to 1800 μg/mL, p > 0.05
Procedure: A series of samples with concentration range from 90 μg/mL (corresponding to 69.28 μM and 93.26 μM for [sequence] and [sequence], respectively) to 1800μg/mL were used in stability analysis.

[6] = Ferric reducing capacity (reducing power, FRAP); conditions: natural purified peptide, Figure 3a, tests repeated three times, read-out: EC50 values of active peptides: FRAP
Procedure: The reducing power of the peptide fractions was assayed as described by Moayedi et al.. Vitamin C was used as a positive control. The reducing power of active peptides was assayed by determining EC50 values.

[7] = Hydroxyl radical scavenging activity; conditions: natural purified peptide; Figure 3a; tests repeated three times; read-out: EC50 values of active peptides: OH
Procedure: The hydroxyl radical scavenging activity of peptide fractions was determined according to the methods described by Dong et al.. Vitamin C was used as a positive control. The hydroxyl radical activity of active peptides was evaluated by EC50.

[8] = target: T1, angiotensin-converting enzyme (from the rabbit lung) (Oryctolagus cuniculus, UniProt P12822); assay: ACE-inhibitory activity; assay type: biochemical; conditions: for ACE-Inhibitory Activity (%): fractions purified from M-F and VM-F using HILIC, all at the same concentration (not given), n = 3, mean ± SD; for EC50: natural purified peptide, Figure 3a, tests repeated three times, read-out: EC50 values of active peptides: ACE
T1 construct: angiotensin-converting enzyme (0.25 U·mL^−1, from the rabbit lung); purchased Sigma-Aldrich (Shanghai, China); host or cells: rabbit lung (tissue-derived)
T1 sequence (P12822 34-1310): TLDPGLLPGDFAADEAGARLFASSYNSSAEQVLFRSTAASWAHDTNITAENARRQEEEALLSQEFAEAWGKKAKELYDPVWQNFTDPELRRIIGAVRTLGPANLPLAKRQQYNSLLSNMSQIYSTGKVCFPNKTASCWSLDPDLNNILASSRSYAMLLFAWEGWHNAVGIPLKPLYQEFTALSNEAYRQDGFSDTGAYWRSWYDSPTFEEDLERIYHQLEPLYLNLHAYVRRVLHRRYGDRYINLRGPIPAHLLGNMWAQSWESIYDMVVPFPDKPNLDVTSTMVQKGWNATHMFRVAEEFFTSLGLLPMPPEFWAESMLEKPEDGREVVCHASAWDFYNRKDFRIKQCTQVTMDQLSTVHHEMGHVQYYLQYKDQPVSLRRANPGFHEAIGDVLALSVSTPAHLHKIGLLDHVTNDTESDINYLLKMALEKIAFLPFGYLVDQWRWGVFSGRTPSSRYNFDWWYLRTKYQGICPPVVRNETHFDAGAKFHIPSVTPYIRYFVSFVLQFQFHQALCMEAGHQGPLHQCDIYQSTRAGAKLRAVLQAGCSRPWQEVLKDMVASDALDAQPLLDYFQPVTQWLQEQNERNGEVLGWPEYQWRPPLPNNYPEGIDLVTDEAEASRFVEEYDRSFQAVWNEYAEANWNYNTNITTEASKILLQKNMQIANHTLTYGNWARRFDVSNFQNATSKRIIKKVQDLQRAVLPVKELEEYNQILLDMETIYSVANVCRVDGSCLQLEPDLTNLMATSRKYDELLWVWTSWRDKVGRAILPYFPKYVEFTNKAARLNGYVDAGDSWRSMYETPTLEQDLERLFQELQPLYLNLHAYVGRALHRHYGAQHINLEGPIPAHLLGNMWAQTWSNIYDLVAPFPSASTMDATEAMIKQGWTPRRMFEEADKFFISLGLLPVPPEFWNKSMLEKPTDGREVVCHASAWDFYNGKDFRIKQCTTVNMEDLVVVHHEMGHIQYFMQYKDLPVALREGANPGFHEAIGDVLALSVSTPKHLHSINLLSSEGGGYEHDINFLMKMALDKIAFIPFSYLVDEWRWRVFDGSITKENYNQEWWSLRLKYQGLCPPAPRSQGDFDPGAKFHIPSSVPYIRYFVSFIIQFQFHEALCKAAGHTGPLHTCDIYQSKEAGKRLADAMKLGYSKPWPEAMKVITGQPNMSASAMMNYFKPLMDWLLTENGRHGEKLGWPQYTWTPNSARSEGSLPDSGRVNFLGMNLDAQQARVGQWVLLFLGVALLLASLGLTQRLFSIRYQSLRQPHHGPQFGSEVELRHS
Source text: (§1) DPPH, angiotensin-converting enzyme (0.25 U·mL^−1, from the rabbit lung), N-hippuryl-His-Leu hydrate (HHL), hippuric acid, and amino acid standards were purchased from Sigma-Aldrich (Shanghai, China). α-Glucosidase protease (50 U/mg, from yeast), α-amylase protease (50 U/mg, from Bacillus subtilis), acarbose, 4-nitrophenyl-β-D-galactopyranoside, 6-aminoquinolyl-N-hydroxysuccinimidyl carbamate (AQC), ribonuclease (13,700 Da, from the bovine pancreas), aprotinin hydrochloride (6511 Da, from the bovine lung), angiotensin II (1046 Da), and L-serine (105 Da) were purchased from Yuanye Biological Technology Co. (Shanghai, China). Trypsin (250 U/mg), pepsin (250 U/mg), Sephadex G25 gel, nifedipine, and vitamin C were purchased from Solarbio (Beijing, China). Transgenic zebrafish Tg (krt4:NTR-hKikGR)^cy17 are maintained in our lab. All chemicals and reagents used for HPLC were of chromatographic grade and other chemicals and reagents were of analytical grade.
ACE-inhibitory activity was measured according to the methods of Chen et al.. Nifedipine was used as a positive control. Results were reported as EC50 values.

[9] = target: α-glucosidase (from yeast); assay: α-Glucosidase inhibitory activity; assay type: biochemical; conditions: natural purified peptide; Figure 3a; tests repeated three times; read-out: EC50 values of active peptides: α-glucosidase
Source text: as §1
(§2) α-Amylase and α-glucosidase inhibitory activities were assayed as described by Uraipong et al.. Acarbose was used as a positive control. The inhibitory activity of active peptides was expressed as the EC50 value.

[10] = system: α-amylase (from Bacillus subtilis); assay: α-Amylase inhibitory activity; assay type: biochemical; conditions: for α-Amylase Inhibitory Activity (%): fractions purified from M-F and VM-F using HILIC, all at the same concentration (not given), n = 3, mean ± SD; for EC50: natural purified peptide, Figure 3a, tests repeated three times, read-out: EC50 values of active peptides: α-amylase
Source text: as §1, §2

[11] = target: T2, angiotensin-converting enzyme (from the rabbit lung) (rabbit) (UniProt P12822)
T2 sequence: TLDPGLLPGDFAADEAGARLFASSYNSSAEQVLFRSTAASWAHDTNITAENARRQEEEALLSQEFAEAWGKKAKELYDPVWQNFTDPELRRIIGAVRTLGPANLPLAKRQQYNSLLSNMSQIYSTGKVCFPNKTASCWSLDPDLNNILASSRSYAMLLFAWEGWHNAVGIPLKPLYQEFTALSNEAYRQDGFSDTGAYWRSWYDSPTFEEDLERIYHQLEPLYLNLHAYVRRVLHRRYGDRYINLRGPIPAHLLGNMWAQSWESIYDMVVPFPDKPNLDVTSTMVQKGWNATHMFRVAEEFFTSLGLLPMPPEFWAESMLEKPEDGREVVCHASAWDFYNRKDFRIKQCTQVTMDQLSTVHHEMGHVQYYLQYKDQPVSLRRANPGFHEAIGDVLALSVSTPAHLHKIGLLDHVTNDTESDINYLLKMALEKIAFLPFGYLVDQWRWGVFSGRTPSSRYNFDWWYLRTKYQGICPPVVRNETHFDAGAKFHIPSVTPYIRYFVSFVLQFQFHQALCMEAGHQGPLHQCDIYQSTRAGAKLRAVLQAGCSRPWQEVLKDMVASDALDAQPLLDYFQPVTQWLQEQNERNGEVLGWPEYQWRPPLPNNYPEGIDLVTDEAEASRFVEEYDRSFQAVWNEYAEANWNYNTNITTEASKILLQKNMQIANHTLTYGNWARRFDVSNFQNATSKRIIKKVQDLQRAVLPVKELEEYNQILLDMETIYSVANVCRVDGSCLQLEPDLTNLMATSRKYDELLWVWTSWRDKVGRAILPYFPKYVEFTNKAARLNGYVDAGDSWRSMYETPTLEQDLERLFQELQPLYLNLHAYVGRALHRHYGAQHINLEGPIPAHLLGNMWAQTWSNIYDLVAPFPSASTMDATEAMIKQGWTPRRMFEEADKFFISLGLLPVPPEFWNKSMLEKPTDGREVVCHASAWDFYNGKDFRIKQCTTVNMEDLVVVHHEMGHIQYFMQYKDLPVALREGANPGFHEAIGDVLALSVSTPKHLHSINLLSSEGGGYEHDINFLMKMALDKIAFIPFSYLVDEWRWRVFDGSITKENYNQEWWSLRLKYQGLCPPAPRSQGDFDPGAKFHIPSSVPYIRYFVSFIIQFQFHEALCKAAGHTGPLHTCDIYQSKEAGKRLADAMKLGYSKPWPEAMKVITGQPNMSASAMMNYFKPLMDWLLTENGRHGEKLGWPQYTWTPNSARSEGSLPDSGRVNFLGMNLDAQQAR

Molecule: YLYEIARR
EC50 [1]: 86 µM

Molecule: YLYEIAR
EC50 [1]: 16 µM

Molecule: YIAEDAER [VM-P7, Tyr-Ile-Ala-Glu-Asp-Ala-Glu-Arg]
effect of gastrointestinal digestion treatment on EC50 values of DPPH radical scavenging and ACE inhibitory activities [2]: have thermal and gastrointestinal stability | number of fluorescent spots (FS) compared with negative control (MTZ without peptides) ([3]; low concentration): no significant difference | DPPH Radical Scavenging Activity (%) [4]: 82.60 ± 0.86% | EC50 [4]: 185 µM | effect of thermal treatment on EC50 values of DPPH radical scavenging and ACE inhibitory activities [5]: have thermal and gastrointestinal stability | EC50 [6]: 856 µM | EC50 [7]: 814 µM | ACE-Inhibitory Activity (%) [8]: 74.95 ± 1.24% | EC50 [8]: 236 µM | EC50 [9]: 823 µM | α-Amylase Inhibitory Activity (%) [10]: 53.85 ± 0.92% | EC50 [10]: 942 µM

Molecule: YIPIQYVLSR
EC50 [1]: 132 µM

Molecule: YSQLENEFDR [M-P6, Tyr-Ser-Gln-Leu-Glu-Asn-Glu-Phe-Asp-Arg]
effect of gastrointestinal digestion treatment on EC50 values of DPPH radical scavenging and ACE inhibitory activities [2]: have thermal and gastrointestinal stability | number of fluorescent spots (FS) compared to the control group (no MTZ or peptides) ([3]; high concentration): more FS were detected | DPPH Radical Scavenging Activity (%) [4]: 91.87 ± 0.62% | EC50 [4]: 96.7 µM | effect of thermal treatment on EC50 values of DPPH radical scavenging and ACE inhibitory activities [5]: have thermal and gastrointestinal stability | EC50 [6]: 430 µM | EC50 [7]: 234 µM | ACE-Inhibitory Activity (%) [8]: 84.81 ± 0.35% | EC50 [8]: 75.6 µM | EC50 [9]: 589 µM | α-Amylase Inhibitory Activity (%) [10]: 56.15 ± 1.64% | EC50 [10]: 692 µM

ACE-inhibitory activity (%) of the HILIC-purified fraction VM-P7 (enzyme activity; all fractions at the same concentration) [11]: 75%
Molecule: YIAEDAER [YIAEDAER (Tyr-Ile-Ala-Glu-Asp-Ala-Glu-Arg)]

ACE-inhibitory activity (%) of the HILIC-purified fraction M-P6 (enzyme activity; all fractions at the same concentration) [11]: 84.8%
Molecule: YSQLENEFDR [… (Tyr-Ser-Gln-Leu-Glu-Asn-Glu-Phe-Asp-Arg)]
